According to article PMC4291083, “Ex Vivo Characterization of a Novel Iodine-123-Labelled Aminomethylchroman as a Potential Agonist Ligand for SPECT Imaging of Dopamine D2/3 Receptors” (International Journal of Molecular Imaging, 2014):
Marks after values point to notes of the source that are not given here.

Experiment: Biodistribution studies in rats
Format: in vivo, Wistar rats
Settings: for uptake ratio Frontal cortex/cereb. / uptake ratio Hippocampus/cereb. / uptake ratio Hypothalamus/cereb. / uptake ratio Midbrain/cereb. / uptake ratio Olfactory b./cereb. / uptake ratio Pons/medulla/cereb. / uptake ratio Striatum/cereb. / uptake ratio Thalamus/cereb. / uptake ratio Pituitary/cereb.: rats; for 123I radioactivity, Blood / 123I radioactivity, Cerebellum / 123I radioactivity, Fat: male rats
Procedure: [^123I]-1 (SA ≥ 37 MBq/nmol) was received after radiolabelling in an isotonic acetate (9% EtOH) buffer (pH 4.8). The solution was passed through a membrane filter (0.2 μm) and was diluted to the proper concentrations. Male Wistar rats (approximately 250 g body weight, obtained from Harlan/Charles River, Zeist, Netherlands) received an intravenous injection in the tail vein of approximately 3.7 MBq/0.4 mL buffer of [^123I]-1 under O2/CO2 anaesthesia. Distribution to the tissue was measured 15 min, 30 min, and 1, 2, 3, 4, and 24 h after the injection to determine the time course of uptake in several organs, including the brain. Four rats were killed at each time point via bleeding by heart puncture (to minimize contribution of blood activity) under O2/CO2 anaesthesia followed by cervical dislocation. Brain regions (cerebellum, frontal and prefrontal cortex, olfactory bulbs, pituitary, medulla with pons, midbrain, striatum, hypothalamus, hippocampus, and thalamus) and various peripheral tissues (heart, lung, liver, spleen, kidney, muscle, fat, and thymus) were quickly excised and weighted. The activity of [^123I] was assayed in a gamma counter, and data was corrected for decay and the amount of radioactivity was presented as percentage of the injected dose, multiplied by the body weight in kilograms, per gram tissue or blood. Selective uptake in the striatum was determined by calculating the ratio of radioactivity in the striatum in relation to that in the cerebellum, since the density of dopamine D2/3 receptor is negligible in this brain area in rats.

uptake ratio Frontal cortex/cereb. (15 min after i.v. injection): 2.962 ± 1.817
uptake ratio Hippocampus/cereb. (15 min after i.v. injection): 0.870 ± 0.303
uptake ratio Hypothalamus/cereb. (15 min after i.v. injection): 1.512 ± 0.546
uptake ratio Midbrain/cereb. (15 min after i.v. injection): 3.712 ± 4.715
uptake ratio Olfactory b./cereb. (15 min after i.v. injection): 0.431 ± 0.330
uptake ratio Pons/medulla/cereb. (15 min after i.v. injection): 1.470 ± 0.520
uptake ratio Striatum/cereb. (15 min after i.v. injection): 1.455 ± 1.265
uptake ratio Thalamus/cereb. (15 min after i.v. injection): 1.670 ± 0.908
uptake ratio Pituitary/cereb. (15 min after i.v. injection, only 1 sample): 1.157^*
uptake ratio Frontal cortex/cereb. (30 min after i.v. injection): 1.543 ± 0.142
uptake ratio Hippocampus/cereb. (30 min after i.v. injection): 1.479 ± 0.466
uptake ratio Hypothalamus/cereb. (30 min after i.v. injection): 1.139 ± 0.014
uptake ratio Midbrain/cereb. (30 min after i.v. injection): 1.144 ± 0.051
uptake ratio Olfactory b./cereb. (30 min after i.v. injection): 0.893 ± 0.067
uptake ratio Pituitary/cereb. (30 min after i.v. injection): 2.262 ± 0.233
uptake ratio Pons/medulla/cereb. (30 min after i.v. injection): 1.036 ± 0.212
uptake ratio Striatum/cereb. (30 min after i.v. injection): 1.294 ± 0.061
uptake ratio Thalamus/cereb. (30 min after i.v. injection): 1.325 ± 0.074
mean ratio of striatum/cerebellum binding (30 min to 4 h p.i., i.v., Wistar rats): about 1.3
uptake ratio Frontal cortex/cereb. (1 h after i.v. injection): 1.154 ± 0.095
uptake ratio Hippocampus/cereb. (1 h after i.v. injection): 1.390 ± 0.210
uptake ratio Hypothalamus/cereb. (1 h after i.v. injection): 1.189 ± 0.132
uptake ratio Midbrain/cereb. (1 h after i.v. injection): 1.207 ± 0.109
uptake ratio Olfactory b./cereb. (1 h after i.v. injection): 1.007 ± 0.050
uptake ratio Pituitary/cereb. (1 h after i.v. injection): 2.502 ± 0.883
uptake ratio Pons/medulla/cereb. (1 h after i.v. injection): 1.218 ± 0.109
uptake ratio Striatum/cereb. (1 h after i.v. injection): 1.246 ± 0.103
uptake ratio Thalamus/cereb. (1 h after i.v. injection): 1.243 ± 0.042
uptake ratio Frontal cortex/cereb. (2 h after i.v. injection): 1.145 ± 0.079
uptake ratio Hippocampus/cereb. (2 h after i.v. injection): 1.301 ± 0.047
uptake ratio Hypothalamus/cereb. (2 h after i.v. injection): 1.116 ± 0.085
uptake ratio Midbrain/cereb. (2 h after i.v. injection): 1.168 ± 0.080
uptake ratio Olfactory b./cereb. (2 h after i.v. injection): 1.125 ± 0.089
uptake ratio Pituitary/cereb. (2 h after i.v. injection): 4.399 ± 2.113
uptake ratio Pons/medulla/cereb. (2 h after i.v. injection): 1.205 ± 0.016
uptake ratio Striatum/cereb. (2 h after i.v. injection): 1.155 ± 0.069
uptake ratio Thalamus/cereb. (2 h after i.v. injection): 1.200 ± 0.067
uptake ratio Frontal cortex/cereb. (3 h after i.v. injection): 1.315 ± 0.360
uptake ratio Hippocampus/cereb. (3 h after i.v. injection): 1.294 ± 0.112
uptake ratio Hypothalamus/cereb. (3 h after i.v. injection): 1.326 ± 0.053
uptake ratio Midbrain/cereb. (3 h after i.v. injection): 1.224 ± 0.090
uptake ratio Olfactory b./cereb. (3 h after i.v. injection): 1.314 ± 0.150
uptake ratio Pituitary/cereb. (3 h after i.v. injection): 3.352 ± 1.490
uptake ratio Pons/medulla/cereb. (3 h after i.v. injection): 1.310 ± 0.114
uptake ratio Striatum/cereb. (3 h after i.v. injection): 1.331 ± 0.126
uptake ratio Thalamus/cereb. (3 h after i.v. injection): 1.582 ± 0.101
uptake ratio Frontal cortex/cereb. (4 h after i.v. injection): 0.865 ± 0.580
uptake ratio Hippocampus/cereb. (4 h after i.v. injection): 1.035 ± 0.114
uptake ratio Hypothalamus/cereb. (4 h after i.v. injection): 1.332 ± 0.103
uptake ratio Midbrain/cereb. (4 h after i.v. injection): 1.097 ± 0.086
uptake ratio Olfactory b./cereb. (4 h after i.v. injection): 1.333 ± 0.124
uptake ratio Pituitary/cereb. (4 h after i.v. injection): 3.570 ± 2.544
uptake ratio Pons/medulla/cereb. (4 h after i.v. injection): 1.214 ± 0.133
uptake ratio Striatum/cereb. (4 h after i.v. injection): 1.156 ± 0.080
uptake ratio Thalamus/cereb. (4 h after i.v. injection): 1.351 ± 0.175
uptake ratio Frontal cortex/cereb. (24 h after i.v. injection): 1.818 ± 0.372
uptake ratio Hippocampus/cereb. (24 h after i.v. injection): 1.031 ± 0.090
uptake ratio Hypothalamus/cereb. (24 h after i.v. injection): 1.989 ± 0.574
uptake ratio Midbrain/cereb. (24 h after i.v. injection): 1.426 ± 0.204
uptake ratio Olfactory b./cereb. (24 h after i.v. injection): 1.444 ± 0.163
uptake ratio Pituitary/cereb. (24 h after i.v. injection): 6.021 ± 0.577
uptake ratio Pons/medulla/cereb. (24 h after i.v. injection): 1.278 ± 0.211
uptake ratio Striatum/cereb. (24 h after i.v. injection): 2.023 ± 0.872
uptake ratio Thalamus/cereb. (24 h after i.v. injection): 2.473 ± 0.599
123I radioactivity, Blood (15 min after i.v. injection): 0.291 ± 0.190 %ID × kg/g
123I radioactivity, Blood (30 min after i.v. injection): 0.486 ± 0.291 %ID × kg/g
123I radioactivity, Blood (1 h after i.v. injection): 0.557 ± 0.087 %ID × kg/g
123I radioactivity, Blood (2 h after i.v. injection): 0.446 ± 0.105 %ID × kg/g
123I radioactivity, Blood (3 h after i.v. injection): 0.428 ± 0.082 %ID × kg/g
123I radioactivity, Blood (4 h after i.v. injection): 0.393 ± 0.136 %ID × kg/g
123I radioactivity, Blood (24 h after i.v. injection): 0.081 ± 0.049 %ID × kg/g
123I radioactivity, Cerebellum (15 min after i.v. injection): 0.858 ± 0.384 %ID × kg/g
123I radioactivity, Cerebellum (30 min after i.v. injection): 1.496 ± 0.478 %ID × kg/g
123I radioactivity, Cerebellum (1 h after i.v. injection): 0.627 ± 0.035 %ID × kg/g
123I radioactivity, Cerebellum (2 h after i.v. injection): 0.196 ± 0.037 %ID × kg/g
123I radioactivity, Cerebellum (3 h after i.v. injection): 0.178 ± 0.061 %ID × kg/g
123I radioactivity, Cerebellum (4 h after i.v. injection): 0.087 ± 0.043 %ID × kg/g
123I radioactivity, Cerebellum (24 h after i.v. injection): 0.014 ± 0.002 %ID × kg/g
123I radioactivity, Fat (15 min after i.v. injection): 3.080 ± 2.656 %ID × kg/g
123I radioactivity, Fat (30 min after i.v. injection): 0.674 ± 0.102 %ID × kg/g
123I radioactivity, Fat (1 h after i.v. injection): 0.509 ± 0.024 %ID × kg/g
123I radioactivity, Fat (2 h after i.v. injection): 0.365 ± 0.094 %ID × kg/g
Structure (SMILES): Oc1ccc2c(c1)O[C@@H](CNCc1ccc([123I])cc1)CC2 [[^123I]-1]
